Measurements from patent publication US20250302833A1, “PHARMACEUTICAL COMPOSITION FOR TREATING OR PREVENTING CYSTIC DISEASE” (CHUGAI SEIYAKU KABUSHIKI KAISHA, priority 2022, published 2025).
pIC50: −log10 of the molar value.

Key:
Type in all cases: cell-based
human NaPi-IIb = biological target: T1, human NaPi-IIb (Homo sapiens, UniProt O95436); assay: 33PO4 uptake inhibition in CHO cells expressing human NaPi-IIb; details: CHO cells transiently expressing human NaPi-IIb, pH 6.5
T1 construct: expressed in transfected cells; host or cells: CHO cells, transient transfection with Fugene HD
T1 sequence (O95436 1-690): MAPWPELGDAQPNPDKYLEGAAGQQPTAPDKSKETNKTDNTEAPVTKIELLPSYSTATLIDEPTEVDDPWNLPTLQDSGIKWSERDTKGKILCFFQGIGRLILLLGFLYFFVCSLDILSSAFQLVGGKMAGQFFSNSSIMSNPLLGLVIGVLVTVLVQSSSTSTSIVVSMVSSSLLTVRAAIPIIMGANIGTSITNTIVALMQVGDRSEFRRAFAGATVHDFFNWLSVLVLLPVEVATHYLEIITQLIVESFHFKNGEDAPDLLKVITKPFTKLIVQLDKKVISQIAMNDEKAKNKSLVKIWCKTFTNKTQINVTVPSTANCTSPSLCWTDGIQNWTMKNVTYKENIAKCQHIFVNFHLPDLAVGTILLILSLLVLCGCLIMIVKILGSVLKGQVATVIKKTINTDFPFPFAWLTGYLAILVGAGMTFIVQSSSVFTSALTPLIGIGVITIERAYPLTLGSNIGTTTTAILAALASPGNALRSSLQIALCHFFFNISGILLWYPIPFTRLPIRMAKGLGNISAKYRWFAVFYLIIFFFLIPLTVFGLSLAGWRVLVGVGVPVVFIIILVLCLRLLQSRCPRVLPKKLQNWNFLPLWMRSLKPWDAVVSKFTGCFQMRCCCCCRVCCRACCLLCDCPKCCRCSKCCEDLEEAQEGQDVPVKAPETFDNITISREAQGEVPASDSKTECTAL
Description: For transient expression, human NaPi-IIb expression plasmids, human PiT1 expression plasmids, human PiT2 expression plasmids, and Fugene HD Transfection (Promega Corporation) were added to CHO cells using a 96-well plate, and the plate was incubated in a C02 incubator for 16 hours. The medium was replaced with buffer A (145 mM choline chloride, 3 mM KCl, 1 mM CaCl2), 0.5 mM MgCl2, 5 mM glucose, 5 mM MES, (pH 6.5)), and then replaced with buffer B (145 mM NaCl, 3 mM KCl, 1 mM CaCl2, 0.5 mM MgCl2, 5 mM glucose, 5 mM MES (pH 6.5)) to which a test compound was added at the final concentration of 0.01, 0.03, 0.1, 0.3, 1, 3, 10, or 30 μM, buffer A to which DMSO was added, or buffer B to which DMSO was added. After a certain time, a 1/20 amount of buffer A containing ^33PO4 (PerkinElmer Japan G. K.) was added and reacted at room temperature. After washing with ice-cooled buffer A, a liquid scintillator (MicroScint™-20, item number 6013621, PerkinElmer Japan G.K.) was added, and the ^33PO4 uptake amount was measured with the top count (Top Count NXT, PerkinElmer Japan G.K.). The inhibition rate was determined by the following formula. Here, a certain time was set to 10 minutes. The phrase “a 1/20 amount of buffer A containing ^33PO4 (PerkinElmer Japan G.K.) was added” refers to “buffer A containing ^33PO4 (PerkinElmer Japan G.K.) was added in an amount of 1/20 of the amount of solution filling the medium”.
The 50% ^33PO4-uptake inhibition concentrations (ICs) (UM) in a cell expressing human NaPi-Ilb, human PiT1, and human PiT2 were calculated from a straight line through two points sandwiching 50% inhibition rate. It should be noted that compounds 1 and 2 were not measured for baman PiT1 and human PiT2, which was indicated as “-” in Table 1.

[1] = test system: primary cells from kidney tissues of human ADPKD patients; assay: Inhibition of three-dimensional cyst formation using primary cells from kidney tissue of human ADPKD patient; details: 168 h, test compound 30 μM, forskolin + ITS stimulation, 7 days 3D culture, average N=3, read-out: Inhibition rate (%) of cyst formation
Description: Primary cells were isolated from kidney tissues of human ADPKD patients. Under two-dimensions, the isolated cells were cultured for 2 days using DMEM/F-12 (Thermo Fisher Scientific, Inc.) supplemented with 10% FBS. Subsequently, three-dimensional culture was performed for 7 days using 3D Ready Atelocollagen (KOKEN CO., LTD.). During three-dimensional culture, 50 µM forskolin (Sigma-Aldrich Co. LLC) and ITS liquid media supplements (Sigma-Aldrich Co. LLC) were added as stimulating agents to some of the wells to form cysts, and a test compound was added at the final concentration of 30 μM. The test compound was also added to other wells at the final concentration of 30 μM. After 7 days of three-dimensional culture, it was fixed with 4% paraformaldehyde (Thermo Fisher Scientific, Inc.), and nucleic acid staining and cell membrane staining were performed with Hoechst 33342 (Thermo Fisher Scientific, Inc.) and CellLight Plasma Membrane-RFP, BacMam 2.0 (Thermo Fisher Scientific, Inc.). Three-dimensional imaging and volume analysis were performed using Operetta CLS and image analysis software Harmony (PerkinElmer Japan G.K.). The inhibition rate was determined by the following formula.

human PiT1 = biological target: T2, human PiT1 (Homo sapiens, UniProt Q8WUM9); assay: 33PO4 uptake inhibition in CHO cells expressing human PiT1; details: CHO cells transiently expressing human PiT1, pH 6.5
T2 construct: expressed in transfected cells; host or cells: CHO cells, transient transfection with Fugene HD
T2 sequence (Q8WUM9 1-679): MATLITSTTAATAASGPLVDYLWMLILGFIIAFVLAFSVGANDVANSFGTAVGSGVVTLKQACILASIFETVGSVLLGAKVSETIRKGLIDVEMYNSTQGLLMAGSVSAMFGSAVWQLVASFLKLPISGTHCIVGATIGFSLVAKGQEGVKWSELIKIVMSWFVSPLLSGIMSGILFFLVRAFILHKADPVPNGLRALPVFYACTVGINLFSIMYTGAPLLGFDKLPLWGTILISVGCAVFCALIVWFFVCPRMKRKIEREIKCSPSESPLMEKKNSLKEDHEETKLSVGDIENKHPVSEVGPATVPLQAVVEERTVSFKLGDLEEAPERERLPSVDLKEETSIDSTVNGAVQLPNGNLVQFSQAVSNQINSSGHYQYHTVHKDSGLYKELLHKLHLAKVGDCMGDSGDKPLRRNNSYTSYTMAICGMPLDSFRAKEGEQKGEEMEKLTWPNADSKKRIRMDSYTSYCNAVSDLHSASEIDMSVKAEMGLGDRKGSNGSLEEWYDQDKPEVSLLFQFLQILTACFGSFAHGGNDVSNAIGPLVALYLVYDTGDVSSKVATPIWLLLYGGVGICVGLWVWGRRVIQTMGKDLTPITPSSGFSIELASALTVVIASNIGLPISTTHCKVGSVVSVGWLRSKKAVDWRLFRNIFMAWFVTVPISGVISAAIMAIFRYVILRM
Description: (§1) For transient expression, human NaPi-IIb expression plasmids, human PiT1 expression plasmids, human PiT2 expression plasmids, and Fugene HD Transfection (Promega Corporation) were added to CHO cells using a 96-well plate, and the plate was incubated in a C02 incubator for 16 hours. The medium was replaced with buffer A (145 mM choline chloride, 3 mM KCl, 1 mM CaCl2), 0.5 mM MgCl2, 5 mM glucose, 5 mM MES, (pH 6.5)), and then replaced with buffer B (145 mM NaCl, 3 mM KCl, 1 mM CaCl2, 0.5 mM MgCl2, 5 mM glucose, 5 mM MES (pH 6.5)) to which a test compound was added at the final concentration of 0.01, 0.03, 0.1, 0.3, 1, 3, 10, or 30 μM, buffer A to which DMSO was added, or buffer B to which DMSO was added. After a certain time, a 1/20 amount of buffer A containing ^33PO4 (PerkinElmer Japan G. K.) was added and reacted at room temperature. After washing with ice-cooled buffer A, a liquid scintillator (MicroScint™-20, item number 6013621, PerkinElmer Japan G.K.) was added, and the ^33PO4 uptake amount was measured with the top count (Top Count NXT, PerkinElmer Japan G.K.). The inhibition rate was determined by the following formula. Here, a certain time was set to 10 minutes. […]

human PiT2 = biological target: T3, human PiT2 (Homo sapiens, UniProt Q08357); assay: 33PO4 uptake inhibition in CHO cells expressing human PiT2; details: CHO cells transiently expressing human PiT2, pH 6.5
T3 construct: expressed in transfected cells; host or cells: CHO cells, transient transfection with Fugene HD
T3 sequence (Q08357 1-652): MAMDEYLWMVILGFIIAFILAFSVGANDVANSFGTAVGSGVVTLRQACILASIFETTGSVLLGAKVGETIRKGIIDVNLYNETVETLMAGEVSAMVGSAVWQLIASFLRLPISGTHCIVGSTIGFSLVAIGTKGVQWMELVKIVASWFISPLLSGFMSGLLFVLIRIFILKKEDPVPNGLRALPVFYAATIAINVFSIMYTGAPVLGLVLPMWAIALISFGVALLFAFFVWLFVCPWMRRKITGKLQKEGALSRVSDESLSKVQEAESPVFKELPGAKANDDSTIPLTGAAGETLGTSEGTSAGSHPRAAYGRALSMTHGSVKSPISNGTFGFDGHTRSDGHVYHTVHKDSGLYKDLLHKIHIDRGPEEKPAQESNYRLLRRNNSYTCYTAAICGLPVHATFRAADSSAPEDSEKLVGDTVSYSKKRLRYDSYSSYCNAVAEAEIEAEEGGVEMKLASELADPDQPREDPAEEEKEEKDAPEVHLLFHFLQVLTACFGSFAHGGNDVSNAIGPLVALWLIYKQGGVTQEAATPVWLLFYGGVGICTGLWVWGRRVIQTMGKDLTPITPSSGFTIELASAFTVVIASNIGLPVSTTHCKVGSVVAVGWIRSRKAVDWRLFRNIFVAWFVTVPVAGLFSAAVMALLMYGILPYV
Description: as §1

| SMILES | pIC50 (human NaPi-IIb) | inhibition at 30 µM [1] | pIC50 (human PiT1) | pIC50 (human PiT2) |
| --- | --- | --- | --- | --- |
| O=c1[nH]nc(Sc2ccc(C(F)(F)F)cn2)n1-c1cc(Cl)c(Cl)cc1C(F)(F)F [Compound 1, 4-[4,5-Dichloro-2-(trifluoromethyl)phenyl]-3-[5-(trifluoromethyl)pyridin-2-yl]sulfanyl-1H-1,2,4-triazol-5-one] | 5.10 | 98.2% |  |  |
| C[C@]12CCCN1N(Cc1cccc(Cl)c1F)C(=O)C(C(=O)Nc1cc(F)c(Br)c(F)c1)=C2O [Compound 2, (4aR)-N-(4-Bromo-3,5-difluorophenyl)-1-[(3-chloro-2-fluorophenyl)methyl]-4-hydroxy-4a-methyl-2-oxo-6,7-dihydro-5H-pyrrolo[1,2-b]pyridazine-3-carboxamide] | 5.54 | 100% |  |  |
| O=C(Nc1ccc(Cl)cc1C(=O)c1cnn(-c2ccc(Cl)c(C(F)(F)F)c2)c1)c1cccc(CN2CCC(N3CCCCC3)CC2)c1 [Compound 3, N-[4-Chloro-2-[1-[4-chloro-3-(trifluoromethyl)phenyl]pyra-zole-4-carbonyl]phenyl]-3-[(4-piperidin-1-ylpiperidin-1-yl)methyl]benzamide] | 5.42 | 100% | < 4.52 | < 4.52 |
